Test results reported in EP0612525B1, “Transdermal treatment with mast cell degranulating agents for drug-induced hypersensitivity” (BRISTOL-MYERS SQUIBB COMPANY, priority 1993, dated 1994).
“And” between values parts separate entries of the source, which are not always exact repeats. Identical values can stand only once.

What was measured:
[1] = tested on: BALB/c female mice; test: Contact hypersensitivity, TNBS sensitization / TNCB ear challenge (ear swelling); assay type: in vivo
[2] = tested on: Balb/c mice; test: Contact hypersensitivity, DNCB sensitization / DNCB ear challenge (ear swelling); assay type: in vivo
[3] = tested on: Balb/c mice; test: Immune tolerance induction: re-sensitization with DNCB at a second skin site and re-challenge; assay type: in vivo; conditions: for EAR THICKNESS: DNCB 100 µg re-sensitization day 22, 24 Hours after re-challenge; for % SUPPRESSION / EAR SWELLING: DNCB day 22, 24 Hours
Experimental: To induce immune tolerance, Balb/c mice were treated with CUA in gel formulation as outlined above and a sensitization response elicited in the standard manner. Two weeks later, the previously sensitized mice were re-sensitized by applying 10 µl of 1% DNCB to a second skin site on shaved backs of both control (non-sensitized) and experimental (immunosuppressed by prior treatment with CUA) mice. Both control and experimental animals were challenged 5 days later by application of 20 µl of 1% DNCB to the left ear; ear thickness measurements were made 24 hours later.
Balb/c mice (N=8) were pretreated for 24 hours with 1% CUA in HPMC gel or 5% CUA in HPMC gel on the shaved abdominal skin (site 1), and challenged on the right ear five days later. The CUA-treated mice were immunosuppressed as shown in Table X. The same mice were re-sensitized with DNCB on a demarcated area of their shaved backs and rechallenged five days later on their left ears, and the ear thickness measured 24 hours post-challenge.

[4] = Percutaneous permeation of urocanic acid isomers through human cadaver skin (Franz cell diffusion chambers); assay type: in vitro ADME; conditions: in words
Experimental: Skin permeation experiments were undertaken to measure the flux of cis-UCA and the trans-UCA) through human skin. This information is required for topical delivery of cis-UCA using a TDS.
cis-UCA was prepared by ultraviolet irradiation of solutions of trans-UCA (obtained from Sigma Chemical Co., St. Louis, MO), as described above (see Example 1 above).
For skin permeation experiments, human cadaver skin was obtained and sectioned on a dermatome to yield a partial thickness skin of about 400 µm. Partial thickness skin samples were transferred to standard Franz cell diffusion chambers with the stratum corneum side up, and equilibrated with phosphate buffered saline (PBS) at pH 7.2. at 35°C in standard thermal blocks (Pierce Reacti-Therm).
Three different solution of UV-irradiated UCA were prepared. All samples were mixtures of both cis-UCA and trans-UCA, contained about between 55% to 67% cis-UCA. The three different solutions (0.5 ml) were applied to the skin samples in the donor chamber of the diffusion chamber, and fractions of the receptor solution (saline) were collected and the amount of cis and trans isomers that permeated through the skin determined by standard HPLC methods. […] The tissue extracts were neutralized and aliquots analyzed by HPLC.

[5] = tested on: inflamed skin; test: Anti-inflammatory effect on bee-sting inflamed skin (single human subject); assay type: in vivo
Experimental: A subject was stung by a bee on the medial aspect of the lower portion of the right leg. Within one hour the skin site surrounding the bite became inflamed and an allergic reaction of the delayed hypersensitivity type was seen 24 hours later. […] This response persisted for several days.
The affected area was treated by application of 2% cis-UCA in a gel formulation (hydroxylpropylmethyl cellulose) to a 2-3 cm^2 area of inflamed skin. For a control, a similarly sized area of inflamed skin received the same hydroxylpropylmethyl cellulose gel without cis-UCA. Both treated areas were covered with a transparent dressing.

[6] = tested on: BALB/c female mice; test: Contact hypersensitivity, TNBS sensitization / TNCB ear challenge (ear swelling); assay type: in vivo; conditions: TNBS 35 µg
Experimental: BALB/c female mice were maintained in a specific pathogen-free colony. Age-matched mice between 8 and 12 weeks of age were maintained in filter-protected cages and fed mouse chow and water ad libitum. Lighting was controlled to provide 12 hours light-dark cycles.
A 7% (w/v) working solution of trinitrobenzene sulfonate (TNBS) was prepared in distilled water. […] For induction of sensitization, each of 5 Balb/c mice received epicutaneous application of 35 µg of TNBS via a Hilltop chamber for 5 hours.
A contact hypersensitivity response was elicited on day 5 by challenging the right ear of each mouse with 20 µl of 1% trinitronchlorobenzene (TNCB) (in acetone). Ear thickness was measured with a spring-loaded caliper immediately before challenge, and at 24 and 48 hours after challenge. Ear thickness was measured in mm X 10^-3.
The statistical significance of differences in the contact hypersensitivity response between control and treated mice was determined using Student's t test for two independent variables. Each group contained five mice. Negative control mice were treated for 24 hours with 100 µl of PBS, pH 5.5, and challenged on the right ear 5 days later with 20 µl of 1% TNCB.
The mice were then epicutaneously sensitized with 100 µl of 0.035% TNBS (w/v) in PBS, pH 5.5.
For pretreatment plus co-administration, mice were first pretreated for 24 hours as above. Thereafter, 6000 µg of UCA (100 µl of 6% solution, 60 mg/ml in PBS pH 5.5) were placed in the Hilltop chamber along with 35 µg of TNBS.
Sensitization with TNBS was induced as described above.

[7] = tested on: dermal mast cells; test: Chymase depletion from mast cells in skin organ cultures (immunohistochemical staining); assay type: cell-based
Experimental: Chymase is a proteolytic enzyme with chymotrypsin activity that is released from dermal mast cells upon degranulation. The enzyme has been implicated in proteolytic breakdown of endothelial cell basement membrane matrix proteins and to thereby facilitate leukocyte diapedesis. The release of chymase from mast cells was detected as a depletion of chymase-specific immunohistochemical staining observed in cryosections of the dermis in skin organ cultures. As a positive control 5 mM of morphine sulfate (MSO4 + ctrl) was added to the culture medium bathing the skin organ cultures. The negative control was untreated culture medium (SCM-ctrl). Cis-urocanic acid was added to the culture medium at 1 µg/ml and 10 µg/ml.

[8] = 2 mg (1%) HPMC gel pretreat, DNCB 100 µg, 24 Hours
[9] = 2 mg (1%) HPMC gel pretreat, DNCB 100 µg, 72 Hours
[10] = 10 mg (5%) HPMC gel pretreat, DNCB 100 µg, 24 Hours
[11] = 10 mg (5%) HPMC gel pretreat, DNCB 100 µg, 72 Hours
[12] = 5 Hours Pretreat 15 mg + DNCB 100 µg, 24 Hours
[13] = 5 Hours Pretreat 15 mg + DNCB 100 µg, 48 Hours
[14] = 24 Hours Pretreat 10 mg, then DNCB gel 100 µg, 24 Hours
[15] = 24 Hours Pretreat 10 mg, then DNCB gel 100 µg, 48 Hours
[16] = 24 Hours Pretreat 15 mg + DNCB 100 µg, 24 Hours
[17] = 24 Hours Pretreat 15 mg + DNCB 100 µg, 48 Hours
[18] = Co-Delivery, 10 mg + DNCB 100 µg, 24 Hours
[19] = Co-Delivery, 10 mg + DNCB 100 µg, 48 Hours

## CCN(CC)CCCC(C)Nc1ccnc2cc(Cl)ccc12 (centres unmarked) [chloroquine, Chloroquine, reference compound]
[1]; 200 µg intradermally, TNBS 2.45 mg, 24 Hours
  % SUPPRESSION: 39.6%
[1]; 200 µg intradermally, TNBS 2.45 mg, 48 Hours
  % SUPPRESSION: 46.5%

## O=C(O)/C=C\c1c[nH]cn1 [cis-UCA, cis-urocanic acid]
[2]; [8]
  % SUPPRESSION: 71%
  EAR SWELLING: 26 mm X 10^3
[2]; [9]
  EAR SWELLING: 48 mm X 10^3
  EAR THICKNESS: 288 ± 23 mm X 10^3
[2]; 2 mg (1%) HPMC gel, 24 h pretreatment, DNCB 100 µg, 24 Hours
  EAR THICKNESS: 270 ± 16 mm X 10^3
[2]; [10]
  % SUPPRESSION: 80%
  EAR SWELLING: 18 mm X 10^3
  EAR THICKNESS: 261 ± 15 mm X 10^3
[2]; [11]
  % SUPPRESSION: 59%
  EAR SWELLING: 30 mm X 10^3
  EAR THICKNESS: 270 ± 15 mm X 10^3
[2]; 5 Hours Pretreat 15 mg (7.5% gel) + DNCB 100 µg, 24 Hours
  EAR THICKNESS: 285 ± 27 mm X 10^3
[2]; [12]
  % SUPPRESSION: 46%
  EAR SWELLING: 42 mm X 10^3
[2]; [13]
  % SUPPRESSION: 27%
  EAR SWELLING: 42 mm X 10^3
  EAR THICKNESS: 284 ± 20 mm X 10^3
[2]; 24 Hours Pretreat 10 mg (5% gel), then DNCB gel 100 µg, 24 Hours
  EAR THICKNESS: 260 ± 19 mm X 10^3
[2]; [14]
  % SUPPRESSION: 52%
  EAR SWELLING: 29 mm X 10^3
[2]; [15]
  % SUPPRESSION: 69%
  EAR SWELLING: 20 mm X 10^3
  EAR THICKNESS: 259 ± 12 mm X 10^3
[2]; 24 Hours Pretreat 15 mg (7.5% gel) + DNCB 100 µg, 24 Hours
  EAR THICKNESS: 288 ± 25 mm X 10^3
[2]; [16]
  % SUPPRESSION: 59%
  EAR SWELLING: 47 mm X 10^3
[2]; [17]
  % SUPPRESSION: 54%
  EAR SWELLING: 36 mm X 10^3
  EAR THICKNESS: 276 ± 14 mm X 10^3
[2]; Co-Delivery, 10 mg (5% gel) + DNCB 100 µg, 24 Hours
  EAR THICKNESS: 277 ± 27 mm X 10^3
[2]; [18]
  % SUPPRESSION: not statistically significant
  EAR SWELLING: 39 mm X 10^3
[2]; Co-Delivery, 10 mg + DNCB 100 µg, 24 Hours, listed as UCA
  % SUPPRESSION: 28%
[2]; [19]
  % SUPPRESSION: 29%
  EAR SWELLING: 43 mm X 10^3
  EAR THICKNESS: 273 ± 23 mm X 10^3
[3]; 2 mg (1% HPMC gel) day -1
  EAR THICKNESS: 327 ± 60 mm X 10^3
[3]; 2 mg day -1
  % SUPPRESSION: 51%
  EAR SWELLING: 70 mm X 10^3
[3]; 10 mg (5% HPMC gel) day -1
  EAR THICKNESS: 334 ± 17 mm X 10^3
[3]; 10 mg day -1
  % SUPPRESSION: 42%
  EAR SWELLING: 84 mm X 10^3
[1]; 200 µg, 24 hours before TNBS 3.5 mg, 24 hours after challenge
  % SUPPRESSION: 36%
[1]; 600 µg, 24 hours before TNBS 3.5 mg, 24 hours after challenge
  % SUPPRESSION: 63%
[1]; pretreatment + co-administration, TNBS 35 µg, 24 Hours
  % SUPPRESSION: 52.8%
[1]; pretreatment + co-administration, TNBS 35 µg, 48 Hours
  % SUPPRESSION: 56%
[1]; pretreatment + co-administration, TNBS 35 µg, 48 Hours, listed as cis-UROCANIC ACID
  % SUPPRESSION: 55.8%
[1]; pretreatment only, 6% UCA PBS pH 5.5, TNBS 35 µg, 24 Hours
  % SUPPRESSION: 68.3%
[1]; pretreatment only, 6% UCA PBS pH 5.5, TNBS 35 µg, 48 Hours
  % SUPPRESSION: 77%
[1]; pretreatment only, 6% UCA PBS pH 5.5, TNBS 35 µg, 48 Hours, listed as cis-UROCANIC ACID
  % SUPPRESSION: 77.2%
[4]
  fluxes through human skin (comparison of isomers): comparable fluxes
[5]; 2% gel, 14 hours after initiation of treatment
  appearance of treated skin site: depressed (appearing normal) and lacked any red color
[5]; 2% in hydroxylpropylmethyl cellulose gel, 2-3 cm^2 area, approximately 1 hour after application
  erythema and induration of inflamed skin: erythema and induration disappeared
[6]; intradermal injection 200 µg, 24 Hours
  % SUPPRESSION: 48% and 48.4%
[6]; intradermal injection 200 µg, 48 Hours
  % SUPPRESSION: 32% and 31.6%
[6]; pretreatment + co-administration, 24 Hours
  % SUPPRESSION: 53%
[6]; pretreatment only, 6% UCA PBS pH 5.5, 24 Hours
  % SUPPRESSION: 68%
[7]; 1 µg/ml in culture medium
  chymase positive mast cell per mm^2: 22 ± 20 per mm^2
[7]; 10 µg/ml in culture medium
  chymase positive mast cell per mm^2: 20 ± 10 per mm^2

## CN1CC[C@]23c4c5ccc(O)c4O[C@H]2[C@@H](O)C=C[C@H]3[C@H]1C5.O=S(=O)(O)O [morphine sulfate, reference compound]
[7]; 5 mM in culture medium, positive control
  chymase positive mast cell per mm^2: 37 ± 15 per mm^2
